Where two headings read alike, the source gives them in different places.
Tested on: M. tuberculosis
Format: cell-based, Mycobacterium tuberculosis (laboratory strain H37Rv)
Conditions: for Average % Faster than Control: negative = slower
[1] = crude peptide 10 µg/mL, average of experiments 1 and 2
[2] = crude peptide 10 µg/mL, MGIT, independent experiment 1, Control (TB only) 11.10, inoculum emulsified through G25 needle
[3] = crude peptide 10 µg/mL, MGIT, independent experiment 2, Control (TB only) 9.10, inoculum emulsified through G25 needle

Substance	Time to Positivity (Day.Hours) Experiment 1 [Day.Hours]	Time to Positivity (Day.Hours) Experiment 2 [Day.Hours]	Average % Faster than Control [1] [%]	also measured
FFPFLLGALGSLLPKIF [Temporin-SN1/Frog]	10.22	8.23	4.6	
FFPYAALKWLRKLLKK [P-04/Tunicate]	11.02	8.08	7.2	
FGKILGVGKKVLCGLS [Odorranain-H1/Frog *]	10.19	8.03	9.6	
FIFIRWLLKLGHHGRA [Salusin-beta/Scorpion *]	10.18	8.03	9.8	
FIITGLVRGLTKLF [Temporin-LTb/Frog]	11.07	8.06	6.7	
FITLLLRKFICSITKKC [Brevinin-1Ta/Frog]	11.07	8.05	7.0	
FLGALAKIISGIF [Temporin-1TSa/Frog]	11.00	8.02	8.9	
FLGVVFKLASKVFPAV [D28/Designed *]	11.02	8.09	7.0	
FLPLFASLIGKLL [Temporin-1Cb/Frog]	11.08	8.06	6.6	
FLPLIAGLIGKLF [Peptide B9/Frog]	10.19	8.01	10.0	
FLPLIGRVLSGIL [Temporin A/Frog, naturally occurring peptide, APD3, frog]			3.7	Time to Positivity (Day.Hours) Experiment 1 [2]: 11.02 Day.Hours; Time to Positivity (Day.Hours) Experiment 2 [3]: 9.00 Day.Hours
FLPLLASLFSRLF [Temporin-1Oc/Frog, naturally occurring peptide, APD3, frog]			3.8	Time to Positivity (Day.Hours) Experiment 1 [2]: 11.10 Day.Hours; Time to Positivity (Day.Hours) Experiment 2 [3]: 8.17 Day.Hours
FLPLVTMLLGKLF [Temporin-1Vc/Frog]	11.12	8.21	2.5	
FLSIIAKVLGSLF [Temporin 1Vb/Frog]	11.10	8.08	5.8	
FLSLIPSLVGGSISAFK [TsAP-1/Scorpion]	11.07	8.05	7.0	
FLSTIWNGIKSLL [Pantinin-3/Scorpion]	11.08	8.23	2.8	
FVQWFSKFLGRIL [Temporin L/Frog]	11.06	8.05	7.1	
GAILPLALGALKNLIK [Hylin a1/Frog]	11.14	8.02	6.3	
GFGMALKLLKKVL [Macropin 1/Wasp]	10.12	8.07	10.0	
GFKRIVQRIKDFLRNLV [GF-17/Human *]	10.02	8.07	11.8	
GFWGKLFKLGLHGIGL [NRC-15/Flounder]	11.02	8.14	5.9	
GLGSLVGNALRIGAKLL [CPF-AM4/Frog]	10.17	8.06	9.3	
GRLCYCRGWICFCVGR [Protegrin 4/Pig *]	11.11	8.01	7.1	

Substance	Time to Positivity (Day.Hours) Experiment 1 [Day.Hours]	Time to Positivity (Day.Hours) Experiment 2 [Day.Hours]	Average % Faster than Control [1] [%]	also measured
HFLGTLVNLAKKIL [Temporin-1DRa/Frog, naturally occurring peptide, APD3, frog]			8.5	Time to Positivity (Day.Hours) Experiment 1 [2]: 10.18 Day.Hours; Time to Positivity (Day.Hours) Experiment 2 [3]: 8.09 Day.Hours
ILGAILPLVSGLLSNKL [Alyteserin-2b/Toad]	11.18	8.02	5.6	
ILPFLAGLFSKIL [Pelophylaxin-4/Frog]	11.05	8.18	4.5	
ILPWKWPWWPWRR [Indolicidin/Cow]	11.03	8.18	4.8	
INLKAIAALVKKLL [Mastoparan-VT6/Wasp]	10.21	8.04	9.0	
IRLHRLYTWKATIYTR [PP13/Wasp *]	10.17	8.02	10.2	
IsCT2/Scorpion: naturally occurring peptide, APD3, scorpion (IFGAIWNGIKSLF)	10.23	8.21	4.9	
KKLLGKLLKKLGKLLL [GLK-19/Designed *]	10.17	8.04	9.7	
KRRWRIWLV [P9/Designed]	11.10	8.14	4.4	
LFKLLGKIIHHVGNFV [Clavanin E/Sea squirt, naturally occurring peptide, APD3, sea squirt]			5.8	Time to Positivity (Day.Hours) Experiment 1 [2]: 11.05 Day.Hours; Time to Positivity (Day.Hours) Experiment 2 [3]: 8.12 Day.Hours
LLAGLPKLLCLFFKKC [Brevinin-1DYc/Frog]	11.10	8.16	4.0	
LLGDFFRKSKEKIGKEFKRIVQRIKDFLRNLVPRTES [Peptide 78, reference compound]				Effect on TTP of MTB in words (peptide 10 µg/mL, MGIT): lower TTP; Time to Positivity (Days.Hours) Experiment 2a (peptide 10 µg/mL, MGIT, diluted inoculum, technical repeat 2a, TB control (no peptide) 15.01): 14.15 Days.Hours; Time to Positivity (Days.Hours) Experiment 2b (peptide 10 µg/mL, MGIT, diluted inoculum, technical repeat 2b, TB control (no peptide) 15.20): 15.00 Days.Hours; Time to Positivity (Days.Hours) Experiment 1a (peptide 10 µg/mL, MGIT, less diluted inoculum, technical repeat 1a, TB control (no peptide) 7.02): 6.08 Days.Hours; Time to Positivity (Days.Hours) Experiment 1b (peptide 10 µg/mL, MGIT, less diluted inoculum, technical repeat 1b, TB control (no peptide) 7.01): 6.09 Days.Hours; Average % Faster than Control (peptide 10 µg/mL, overall average of the averages of experiments 1a/1b and 2a/2b): 5.8%
LSFLPKVIGVIGHLIH [Fallaxidin/Frog *]	11.18	8.13	3.2	
LVPLFLSKLICFITKKC [Brevinin 1Tb/Frog]	11.10	8.15	4.2	
OdVP2/Wasp: naturally occurring peptide, APD3, wasp (ILGIITSLLKSLGKK)	10.22	8.11	7.3	
Pd_mastoparan PDD-B/Wasp: naturally occurring peptide, APD3, wasp (INWLKLGKKILGAL)	11.06	8.09	6.3	
RGGRLCYCRRRFCVCV [Protegrin 1/Pig *]	10.23	6.22	15.3	
RWCFRVCYRGICYRKCR [Tachyplasin II/Crab]	10.18	8.06	9.1	
RWCVYAYVRVRGVLVR [Arenicin 1/Annelid worm *]	10.15	8.02	10.5	
SAPRGCWTKSYPPKPCK [Ranacyclin E/Frog]	10.07	8.01	12.2	
SLLSLIRKLIT [Decoralin/Wasp]	11.12	8.04	6.3	
VFHLLGKIIHHVGNFV [Clavanin C/Sea squirt, naturally occurring peptide, APD3, sea squirt]			7.2	Time to Positivity (Day.Hours) Experiment 1 [2]: 10.21 Day.Hours; Time to Positivity (Day.Hours) Experiment 2 [3]: 8.12 Day.Hours

Source: PMC10536189 (Microorganisms, 2023)
